Assay results taken from PubChem BioAssay (NCI).
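Tested at 5 concentrations; 48 h exposure; 96-well plates; endpoints linearly interpolated, else capped at highest concentration. GI50 = concentration required for 50% inhibition of growth. TGI: concentration producing complete growth inhibition.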

Tests used:
Assay in all cases: inhibition of tumour cell growth, NCI panel, 48 h
[1] = system: 786-0 renal
[2] = system: HCC-2998 colon
[3] = system: MALME-3M melanoma
[4] = system: OVCAR-4 ovarian
[5] = system: OVCAR-5 ovarian
[6] = system: U251 CNS
[7] = system: HOP-92 NSCLC
[8] = system: BT-549 breast
[9] = system: PC-3 prostate
[10] = system: T-47D breast

Structure (SMILES)	TGI [1] [µM]	TGI [2] [µM]	TGI [3] [µM]	TGI [4] [µM]	TGI [5] [µM]	TGI [6] [µM]	TGI [7] [µM]	GI50 [1] [µM]	GI50 [8] [µM]	TGI [8] [µM]	GI50 [2] [µM]	GI50 [3] [µM]	GI50 [4] [µM]	GI50 [5] [µM]	GI50 [9] [µM]	TGI [9] [µM]	GI50 [10] [µM]	TGI [10] [µM]	GI50 [6] [µM]
O=C1C=CC2(CCC23C=CC(=O)O3)O1 (centres undefined)	> 100	> 100	> 100	> 100	> 100	> 100													
C=C1C(=O)O[C@@H]2C[C@@]3(C)[C@H](O)CCC(=C)[C@@H]3C[C@H]12	21.6	23.8	12.6	26.7	20.5	26.2	18.2												
Cc1ccc(S(=O)(=O)Nc2ccccc2C(C)(C)C)cc1	62.5	> 100	89.1	> 100	> 100	43.3													
O=C(Nc1ccccc1C(=O)NC(=O)c1ccccc1NC(=O)c1ccccc1)c1ccccc1	29.3		12.1	18	13.5	18.8	6.5												
CCN1C(=O)N(CC)C2C1NC(=S)N2/N=C/C=C/c1ccccc1 (centres undefined)	> 100	> 58.6	> 100	> 100	> 100	> 100		0.158	0.225	13	0.328	3.55	3.31	0.465	0.0734	> 100	21.5	> 100	0.302
O=C1C2C(C(=O)N1Cc1ccccc1)N(Cc1ccccc1)C(=O)N2Cc1ccccc1 (centres undefined)	> 100	> 100	> 100	> 100	> 100	> 100	> 100												
O=C1OC(=O)c2c1nc1ccccc1c2-c1ccccc1	> 100	> 100	> 100	> 100	> 100	> 100	> 100												
C#Cc1cccc(NC(=O)/C=C\C(=O)O)c1	> 100		> 100	> 100	> 100	> 100	> 100												
CCCCCCCCCC1CC(=O)OC23CCCC(=O)C12O3 (centres undefined)	> 100	> 100	> 100	> 100	> 100	> 100	> 100												
O=[N+]([O-])c1cccnc1S(=O)(=O)c1ccccc1	7.09	39.6	23.8	17.1	29.4	22.8	3.64												
CC(C)N(C(=O)C12C3C4C1C1C4(C#N)C3C12C(=O)O)C(C)C (centres undefined)	> 100	> 100	> 100	> 100	> 100	> 100	> 100												
N#Cc1c(-c2ccccc2)c(-c2ccccc2)cc2c(=O)c3ccc(Cl)cc3[nH]c12	> 100	> 100	> 100		> 100	> 100	> 100												
N#Cc1ccccc1Sc1ccccc1N	> 100		> 100	> 100	> 100	> 100	> 100												
CC(C)(C)C1=NO[C@H]2[C@@H](NC(=O)c3ccccc3)CC[C@@H]12	> 100	> 100	> 100	> 100	> 100	> 100	> 100												
CCOC1c2nc3ccccc3nc2-c2ccccc2N1C(C)=O (centres undefined)	> 100	> 100		> 100		> 100	> 100												
O=C(Nc1nc(=S)[nH][nH]1)C(=O)C(c1cnc2ccc([N+](=O)[O-])cc2n1)[N+](=O)[O-] (centres undefined)	> 100	> 100	> 100	> 100	> 100	> 100	> 100												
Nc1c(C(=O)Nc2ccccc2)sc2nc3c(cc12)C(=O)CCC3	> 100	> 100	> 100	> 100	> 100	> 41.9		1.27	3.17	> 100	1.2	4.66	0.81	1.28	0.389	> 100	1.46	> 100	0.486
CCOC(=O)c1cn(C)c2c(OC)c3ccccc3c(OC)c2c1=O	> 100		30.3	> 100	> 100	55.3		> 100	43	> 100		8.95	42.1	30.9	29	> 100	12.4	42.9	20.3
